Assay results: EP2958933B1, “CROSSLINKED PEPTIDE HYDROGELS” (Agency for Science, Technology and Research, priority 2013, dated 2018)
Peptide text beside a SMILES is read from it.

Columns and labels:
[1] = Concentration dependence of self-assembly (aggregates, fibers); type: physicochemical
Description: An amphiphilic linear sequence of an amphiphilic peptide and/or peptoid disclosed herein, including an amphiphilic linear peptide and/or peptoid, is capable of providing a self assembling α-helical fiber in aqueous solution under physiological conditions. The peptides/peptoids (typically 3-7-mers) in the L- or D-form can self assemble into supramolecular helical fibers which are organized into mesh-like structures mimicking biological substances such as collagen. It has previously been observed in X-ray crystallography that peptides of a length of 3 to 6 amino acids with repetitive alanine containing sequences and an acetylated […] take a helical conformation (Hatakeyama, Y, et al, Angew. Chem. Int. Ed. (2009) 8695-8698). Using peptides with an amphiphilic sequence disclosed herein, Ac-LD6 (L), the formation of aggregates has for example been observed already at 0.1 mg/ml. […] With a formation of fibers occurring under physiological conditions at concentrations below 2 mM a peptide/peptoid disclosed herein is well suited as an injectable hydrogel material that can form a hydrogel under physiological conditions. Also disclosed herein is an amphiphilic linear peptide and/or peptoid as defined above for tissue engineering as well as to a tissue engineering method that involves applying, including injecting a respective amphiphilic linear peptide and/or peptoid.

[2] = Water soak of casted gels (resistance to degradation, shape retention); type: physicochemical; conditions: non-oxidised gels, 24 hours of water soak
[3] = Oscillation rheology of casted crosslinkable gels (frequency and amplitude sweep); type: physicochemical; conditions: for gel stiffness on LK6-doping: final concentration 12 mM, cast-and-soak 0.06% H2O2 two hours; for stiffness after water soak: without oxidation
Procedure: Peptide was dissolved in 200 µL of water +/- H2O2 and filled into custom-made hollow ring casts (diameter ∼1 cm). The ring ends were sealed with parafilm to minimise evaporation and the cast was kept at 25°C for 22 hours before further manipulations.
(§1) Rheology: The rheological properties of casted gels were measured with an ARES-G2 (TA Instruments, USA) using the oscillation method. Frequency-sweep studies were performed with ω=0-100 rad/s at strain, γ=0.1%. The gel stiffness was represented by plotting G' against ω. Amplitude-sweep studies were performed beforehand at 1 Hz with γ=0-100%. The LVE limit of the gel was defined as the value of γ when G' first dropped below 90% of the average initial value.
as §1, with “The” for “Rheology: The”

[4] = Determination of a suitable gelation concentration; type: physicochemical; conditions: for working concentration at which gels are formed: gels with sufficient mechanical integrity to withstand handling / gel formation
Description: Reference is now made to the figures, wherein: • Figures 1A to 1M represent a sorted list of some exemplary peptides capable of forming hydrogels. These peptides are examples in which the entire peptide consists of a single linear amphiphilic sequence. Peptides which are forming hydrogels are named with a short code, but their individual sequence is disclosed. The peptides of these examples consist of a sequence of natural amino acids containing 3 to 7 amino acids. The N-terminus is acetylated which removes the charge that would otherwise restrain the amphiphilic character of the peptides. • Figure 2 depicts gelation pictures for peptide based hydrogels at lowest concentrations. • Figure 3 depicts gelation pictures for Ac-AS-6 (Ac-AIVAGS) (L) at concentrations of 5 mg/ml, 10 mg/ml, 15 mg/ml. • Figure 4 depicts a hypothesis of self-assembly from peptide monomers to supramolecular network of condensed fibers. (A) Assembly is believed to initiate with antiparallel pairing of two peptide monomers by changing to α-helical conformations. Subsequently, peptide pairs assemble to fibers and nanostructures. Condensation of peptide fibers to fiber aggregates results in hydrogel formation. • Figure 5 depicts environmental scanning electron microscopy (ESEM) images of hydrogels of Ac-LD6 (Ac-LIVAGD) (L) (10 mg/ml), where Fig. 5A, Fig. 5B and Fig. 5C are images obtained at magnification of 260X, 1000X, 2000X, 2400X, 4000X at a temperature of 4 °C with HV at 10KV. […] 8A), and 450 X (fig. […] (a) A honeycomb porous structure is observed following lyophilization of 20 mg/mL Ac-AD6 (Ac-AIVAGD) (D) hydrogel. The pores are bounded by membranes of condensed fibers as shown in close-up views of 15 mg/mL (b) and 20 mg/mL (c) Ac-ID3 (Ac-IVD) (L) hydrogels. […] Heating the samples to facilitate gelation increased the β type aggregation. […] (e) Far-UV CD spectra of AcID3 (Ac-IVD) at different concentrations. […] (a, b) The high mechanical strengths of different peptide hydrogels at 20 mg/mL concentration was determined by measuring storage moduli (G') as a function of angular frequency under 0.1% strain, at 25°C and 50°C respectively. […] (c) Mechanical strength is a function of concentration, as determined from oscillatory frequency sweep studies using Ac-LD6 (Ac-LIVAGD) (L) under 0.1% strain at 25°C. […] LK6 gels were therefore casted at different concentrations and their stiffness was measured (average ± s.d. of triplicates). As expected, G' values increased with peptide concentration and it was determined that a working concentration of 12 mM afforded gels with sufficient mechanical integrity to withstand handling. […]

HepG2 cells [5] = assay: Quantification of cell-spread area (ImageJ); type: cell-based; conditions: gel culture in the presence or absence of RGD
Description: Confocal images after calcein staining were processed using ImageJ (NIH, USA) to obtain the average cell-spread area under various culture conditions. For cells in 3D gel culture, images used for quantification were mergers of several z-stacks to capture the maximum cell-spread area. In all cases, at least three independent experiments with at least two locations selected from each culture were used for averaging.

[6] = test system: Fibroblasts isolated from the cornea/sclera of New Zealand White rabbits; assay: 3D primary cell culture on gels, calcein live-cell staining; type: cell-based; conditions: purified gels +/- various concentrations of CRGD, four days
Description: (§2) Reference is now made to the figures, wherein: • Figures 1A to 1M represent a sorted list of some exemplary peptides capable of forming hydrogels. These peptides are examples in which the entire peptide consists of a single linear amphiphilic sequence. Peptides which are forming hydrogels are named with a short code, but their individual sequence is disclosed. The peptides of these examples consist of a sequence of natural amino acids containing 3 to 7 amino acids. […] (a, b) The high mechanical strengths of different peptide hydrogels at 20 mg/mL concentration was determined by measuring storage moduli (G') as a function of angular frequency under 0.1% strain, at 25°C and 50°C respectively. […] (c) Mechanical strength is a function of concentration, as determined from oscillatory frequency sweep studies using Ac-LD6 (Ac-LIVAGD) (L) under 0.1% strain at 25°C. […] LK6 gels were therefore casted at different concentrations and their stiffness was measured (average ± s.d. of triplicates). As expected, G' values increased with peptide concentration and it was determined that a working concentration of 12 mM afforded gels with sufficient mechanical integrity to withstand handling. […]

skins of guinea pigs = assay: Direct contact Kligman maximization test (GLP, ISO 10993-10); type: in vivo
HepG2 cells [7] = assay: 3D cell culture on gels, calcein live-cell staining; type: cell-based; conditions: purified gels conjugated with different concentrations of RGD, after four days
Procedure: LK6C +/- CRGD gels were casted directly into 8-chamber Lab-Tek® wells (Nunc, NY, USA) and purified as reported in the SI. 0.5 mL of cell suspension in regular completed DMEM (Invitrogen, Singapore) was either seeded onto the gel or directly into the well (2D control) and incubated for four days. 0.5 µL of calcein-AM (Invitrogen) was then added to the media to identify live cells and images were captured using a confocal microscope (LSM5 DUO, Carl Zeiss, Germany). Beforehand, calcein-AM was verified to stain only live cells as ethanol- and H2O2-treated cells excluded the dye. All images, except for the 2D controls, were presented as mergers of several z-stacks. To further verify the 3D distribution of cells, the gel was embedded vertically in Jung Tissue Freezing Medium (Leica Instruments GmbH, Germany) and 20 µm cross-sectional slices were obtained with a cryostat (CM3050 S, Leica). Sections were mounted with coverslips and imaged as above.
To test for biocompatibility, HepG2 cells were either seeded directly into wells (2D control) or onto purified LK6C gels conjugated with different concentrations of RGD. […] This was repeated with primary rabbit fibroblasts (Figure 35), 3T3 murine fibroblasts (Figure 38) and NIH-3T3 murine fibroblasts (data not shown), confirming the biocompatibility of the gels. With regular media changes, cells remained viable for at least 3 weeks (Figure 38). […]

[8] = test system: Fibroblasts isolated from the cornea/sclera of New Zealand White rabbits; assay: Quantification of cell-spread area (ImageJ); type: cell-based; conditions: various gel cultures, ANOVA p<0.05
Description: as §2

V79 = assay: Direct contact V79 colony assay (GLP); type: cell-based

CC[C@H](C)[C@H](NC(=O)[C@H](CC(C)C)NC(C)=O)C(=O)N[C@H](C(=O)N[C@@H](C)C(=O)NCC(=O)N[C@@H](CC(=O)O)C(=O)O)C(C)C [Ac-LD6 (L), Ac-LIVAGD-COOH] (Ac-LIVAGD-OH)
concentration at which formation of aggregates is observed [1]: 100 µg/mL
concentration at which peptide monomers align to form fibrous structures [1]: 1000 µg/mL

LIVAGK [LK6]
gel degradation after water soak [2]: completely degraded
gel stiffness on LK6-doping [3]: relatively stiff
material needed for gelation [4]: 25 mg/mL
working concentration at which gels are formed [4]: 12 mM

LIVAGKC [LK6C, cross-linkable peptide, LK6 modified with a cysteine residue at the C-terminus; forms hydrogels]
cell spreading vs regular 2D culture (HepG2 cells [5]): insignificant effects (p>0.05)
cell viability (calcein staining) [6]: viable fibroblasts were seen in all cases
sensitization (skins of guinea pigs): no sensitization
cell viability (calcein staining) (HepG2 cells [7]): viable
cell-spread area vs 2D culture [8]: spreaded more in 2D culture compared to those in the various gel cultures
toxicity (V79): no significant toxicity
shape and stiffness after water soak ([3]; 12 mM gel, 2 or 24 hours cast-and-soak or 22 hours in situ oxidation with 0.06% H2O2, up to four days of water soak): maintained their shapes and in fact, became stiffer
stiffness after water soak ([3]; 12 mM gel, 24 hours of water soak): broke down and lost their stiffness
stiffness after water soak ([3]; 12 mM gel, two hours of water soak): could maintain their stiffness
stiffness (G') following oxidation ([3]; compared to non-oxidised gels, different oxidation regimes): either maintained or increased
gel stiffness on LK6-doping [3]: relatively stiff
linear viscoelastic (LVE) limit (elasticity), increase following oxidation ([3]; oxidised vs non-oxidised gels, cast-and-soak 2-24 hours 0.06% H2O2 or in situ 24 hours 0.03-0.1% H2O2): 2.4-3.8 fold
material needed for gelation [4]: 10 mg/mL
working concentration at which gels are formed [4]: 12 mM
